PubChem BioAssay AID248 (DTP/NCI, 2004)
Values joined by “and” are separate entries in the source; they are usually repeats but may differ in a detail not shown here. Equal entries are not always repeated. Toxic doses and inconclusive results are not listed.

System: L1210 leukemia ip in BDF1 mice, survival T/C
Assay: NCI In Vivo Anticancer Drug Screen. Data for tumor model L1210 Leukemia (intraperitoneal) in B6D2F1 (BDF1) mice
Conditions: endpoint: mean survival time, higher = longer survival
Procedure, shortened: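 Survival endpoint. Drug-treated group vs vehicle group, expressed as T divided by C. Tumor passaged by transplantation.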

[1] = dose: 100.0 mg/kg/injection, schedule: Q04DX003 (ip), vehicle: saline
[2] = dose: 200.0 mg/kg/injection, schedule: Q04DX003 (ip), vehicle: saline
[3] = dose: 400.0 mg/kg/injection, schedule: Q04DX003 (ip), vehicle: saline
[4] = dose: 100.0 mg/kg/injection, schedule: Q01DX009 (ip), vehicle: saline with Tween-80
[5] = dose: 200.0 mg/kg/injection, schedule: Q01DX009 (ip), vehicle: saline with Tween-80
[6] = dose: 100.0 mg/kg/injection, schedule: Q01DX001 (ip), vehicle: saline
[7] = dose: 200.0 mg/kg/injection, schedule: Q01DX001 (ip), vehicle: saline
[8] = dose: 400.0 mg/kg/injection, schedule: Q01DX001 (ip), vehicle: saline

O=[N+]([O-])c1ccc(Oc2cccc([N+](=O)[O-])c2)cc1
T/C (dose: 222.0 mg/kg/injection, schedule: Q01DX Z (ip), vehicle: methylcellulose (MC)): 90 % of control
T/C (dose: 333.0 mg/kg/injection, schedule: Q01DX Z (ip), vehicle: methylcellulose (MC)): 95 % of control
T/C (dose: 500.0 mg/kg/injection, schedule: Q01DX Z (ip), vehicle: methylcellulose (MC)): 92 % of control

CN(CCCCN(C)CCOS(C)(=O)=O)CCOS(C)(=O)=O
T/C (dose: 1.7 mg/kg/injection, schedule: Q01DX015 (ip), vehicle: saline): 177 % of control
T/C (dose: 8.3 mg/kg/injection, schedule: Q01DX001 (ip), vehicle: saline): 155 % of control
T/C (dose: 12.5 mg/kg/injection, schedule: Q01DX001 (ip), vehicle: saline): 160 % of control
T/C (dose: 18.7 mg/kg/injection, schedule: Q01DX001 (ip), vehicle: saline): 155 % of control
T/C (dose: 25.0 mg/kg/injection, schedule: Q01DX001 (ip), vehicle: saline): 116 % of control

CCC1(C)NC(C(=O)O)CS1 (stereo not drawn)
T/C [1]: 105 % of control
T/C [2]: 107 % of control
T/C [3]: 100 % of control

CC/C(=C(\CC)c1ccc(OC)cc1)c1ccc(OC)cc1
T/C (dose: 50.0 mg/kg/injection, schedule: Q01DX009 (ip), vehicle: saline with Tween-80): 100 % of control
T/C [4]: 89 % of control
T/C [5]: 89 % of control
T/C [2]: 87 % of control

CCOC(=O)C1=C(C)CC(=O)NC1=O
T/C [6]: 115 % of control
T/C [1]: 108 % of control
T/C [7]: 114 % of control
T/C [2]: 90 % of control
T/C [8]: 111 % of control
T/C [3]: 90 % of control

COc1cccc(CN(C)C)c1C(O)c1ccccc1 (stereo not drawn)
T/C (dose: 50.0 mg/kg/injection, schedule: Q01DX001 (ip), vehicle: carboxymethylcellulose (CMC)): 95 % of control
T/C (dose: 100.0 mg/kg/injection, schedule: Q01DX001 (ip), vehicle: carboxymethylcellulose (CMC)): 97 % of control
T/C (dose: 200.0 mg/kg/injection, schedule: Q01DX001 (ip), vehicle: carboxymethylcellulose (CMC)): 106 % of control

COC1CC(N=[N+]=[N-])C(O)C(C)O1 (stereo not drawn)
T/C [4]: 109 % of control and 105 % of control
T/C (dose: 100.0 mg/kg/injection, schedule: Q04DX003 (ip), vehicle: saline with Tween-80): 97 % of control and 96 % of control
T/C [5]: 107 % of control and 89 % of control
T/C (dose: 200.0 mg/kg/injection, schedule: Q04DX003 (ip), vehicle: saline with Tween-80): 103 % of control and 97 % of control
T/C (dose: 400.0 mg/kg/injection, schedule: Q01DX009 (ip), vehicle: saline with Tween-80): 104 % of control and 100 % of control
T/C (dose: 400.0 mg/kg/injection, schedule: Q04DX003 (ip), vehicle: saline with Tween-80): 108 % of control and 103 % of control

CC(C)OP1(=O)OCC(C)O1 (stereo not drawn)
T/C [6]: 102 % of control
T/C [7]: 98 % of control
T/C [8]: 102 % of control
